In one experiment the target is T1, placental αvβ3 (Homo sapiens, UniProt P05106+P06756).
T1 construct: placental αvβ3 at 0.5 ug/mL; from tissue; host or cells: placenta
As to the kind of experiment: Fibrinogen binding to immobilized αvβ3. Here is the method: (§1) The wells of plastic microtiter plates were coated overnight at 4° C. with purified active αIIbβ3 (Calbiochem) or placental αvβ3 at 0.5 ug/mL (100 uL/well) in a buffer containing 150 mM NaCl, 20 mM Tris, pH 7.4, 1 mM MgCl2, 0.2 mM MnCl2, and including 1 mM CaCl2 for αIIbβ3. Blocking of nonspecific sites was achieved by incubating the wells with 35 mg/mL bovine serum albumin (BSA) for at least 2 hours at 37° C. Biotinylated-fibrinogen (10 nM) was added in 0.2 mL binding buffer (100 mM NaCl, 50 mM Tris, pH 7.4, 1 mM MgCl2, 0.2 mM MnCl2 and 1 mg/mL BSA including 1 mM CaCl2 for αIIbβ3) to the wells in triplicate in the absence or presence of increasing concentrations of compounds of interest (0.001-100 uM) and further incubated for 2 hours at 37° C. Nonbound fibrinogen was removed by five washes with binding buffer. Avidin conjugated to alkaline phosphatase (Sigma), diluted in binding buffer, was added and incubated for two hours at 37° C. The plates were washed five times with binding buffer, and after addition of the substrate PNPP (Pierce), the enzyme activity was measured by the absorbance at 405 nm.

The next experiment deals with T2, GP IIb-IIIa (αIIbβ3) (Homo sapiens, UniProt P05106+P08514).
T2 construct: purchased Calbiochem
T2 sequence (P08514 32-887 limits assumed): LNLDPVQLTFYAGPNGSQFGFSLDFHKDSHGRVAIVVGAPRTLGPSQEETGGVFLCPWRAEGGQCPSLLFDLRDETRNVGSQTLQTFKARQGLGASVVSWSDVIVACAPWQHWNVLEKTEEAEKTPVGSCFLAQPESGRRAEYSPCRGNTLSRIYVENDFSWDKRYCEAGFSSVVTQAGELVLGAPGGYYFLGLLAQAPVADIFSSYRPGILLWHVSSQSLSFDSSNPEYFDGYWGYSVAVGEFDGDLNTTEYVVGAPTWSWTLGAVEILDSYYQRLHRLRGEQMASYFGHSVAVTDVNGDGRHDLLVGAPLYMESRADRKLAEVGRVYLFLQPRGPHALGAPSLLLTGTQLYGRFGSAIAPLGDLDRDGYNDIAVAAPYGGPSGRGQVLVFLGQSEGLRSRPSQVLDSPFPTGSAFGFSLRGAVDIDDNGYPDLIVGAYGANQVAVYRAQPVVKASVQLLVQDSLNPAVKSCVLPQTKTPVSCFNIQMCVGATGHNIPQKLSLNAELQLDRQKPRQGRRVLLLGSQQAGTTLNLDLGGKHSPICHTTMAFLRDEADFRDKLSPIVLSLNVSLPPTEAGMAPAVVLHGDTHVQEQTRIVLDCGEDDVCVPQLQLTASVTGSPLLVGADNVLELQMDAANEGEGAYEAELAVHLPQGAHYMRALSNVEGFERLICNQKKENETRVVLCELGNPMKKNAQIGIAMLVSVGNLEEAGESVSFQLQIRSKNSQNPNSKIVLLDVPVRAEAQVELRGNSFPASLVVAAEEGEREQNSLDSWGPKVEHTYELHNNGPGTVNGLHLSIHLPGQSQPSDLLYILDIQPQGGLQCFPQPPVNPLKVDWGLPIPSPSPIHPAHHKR
T2 sequence (P08514 891-1039 partner limits assumed): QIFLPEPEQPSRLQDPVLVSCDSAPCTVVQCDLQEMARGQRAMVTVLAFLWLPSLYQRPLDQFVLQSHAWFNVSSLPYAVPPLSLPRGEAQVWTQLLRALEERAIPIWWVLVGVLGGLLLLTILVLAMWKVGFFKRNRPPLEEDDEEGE
T2 sequence (P05106 27-788): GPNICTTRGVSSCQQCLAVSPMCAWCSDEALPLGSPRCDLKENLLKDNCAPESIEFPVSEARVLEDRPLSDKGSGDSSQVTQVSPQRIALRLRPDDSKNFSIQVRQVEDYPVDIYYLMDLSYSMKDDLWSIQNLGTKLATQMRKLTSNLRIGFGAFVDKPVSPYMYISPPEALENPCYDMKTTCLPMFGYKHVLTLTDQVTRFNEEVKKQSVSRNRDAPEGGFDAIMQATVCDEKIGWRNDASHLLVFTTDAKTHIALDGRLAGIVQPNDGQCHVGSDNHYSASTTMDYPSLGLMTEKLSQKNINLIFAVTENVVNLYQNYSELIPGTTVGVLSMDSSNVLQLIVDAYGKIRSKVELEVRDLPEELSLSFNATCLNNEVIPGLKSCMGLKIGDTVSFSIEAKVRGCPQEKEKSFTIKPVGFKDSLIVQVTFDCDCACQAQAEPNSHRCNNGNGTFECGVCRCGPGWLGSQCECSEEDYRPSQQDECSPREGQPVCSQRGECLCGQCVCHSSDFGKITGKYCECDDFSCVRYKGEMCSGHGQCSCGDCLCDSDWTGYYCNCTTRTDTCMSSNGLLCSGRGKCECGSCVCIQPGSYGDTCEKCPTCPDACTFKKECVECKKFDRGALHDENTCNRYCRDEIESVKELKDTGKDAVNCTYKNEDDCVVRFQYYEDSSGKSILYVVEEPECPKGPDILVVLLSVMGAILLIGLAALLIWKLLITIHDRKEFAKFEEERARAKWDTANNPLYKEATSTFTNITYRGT
As to the kind of experiment: Fibrinogen binding to immobilized GP IIb-IIIa (αIIbβ3). Here is the method: as §1

Another experiment concerns the target T3, αvβ3 (Homo sapiens, UniProt P05106+P06756).
T3 construct: expressed in transfected cells; host or cells: K562
Description: Cell adhesion assay, K562-tr on osteopontin. Format: cell-based. Here is the method:
(§2) The wells of 96-well plates (Immunolon) were coated, by incubation overnight at 4° C., with 5 ug/mL vitronectin, 2 ug/mL osteopontin, or fibronectin or 10 mg/mL BSA in PBS. The protein solution was flicked out and the wells were blocked with 10 mg/mL BSA (0.1 mL) for 1-2 hours at 37° C. […] Cells were lifted with trypsin-EDTA and washed two times with Hank's balanced salt solution minus cations (Sigma) supplemented with 1 mM MgCl2 Cells (75,000 cells/well) were added to coated plates in triplicate and allowed to attach at 37° C. for 1 hour in the presence or absence of specific antibodies (5 ug/mL) or 10-fold dilutions of compounds of interest starting at 10 uM. Nonadherent cells were removed by gentle washing twice with PBS. The adherent cells were solubilized with 1% triton x-100 and detected using a fluorescence plate reader (DYNEX Technologies). The number of attached cells was calculated based upon standard curves for each cell line used in the experiment.

A further experiment addresses T4, αvβ5 (Homo sapiens, UniProt P06756+P18084).
T4 construct: Cells HT29, K562, or K562 transfected with αvβ3; endogenous in cells; host or cells: HT29
As to the kind of experiment: Cell adhesion assay, HT29 on vitronectin. It counts as cell-based. Here is the method:
as §2

For experiment [1], the system named is Chick chorioallantoic membrane (CAM) capillary formation driven by VPF/VEGF165. As to the kind of experiment: Chick chorioallantoic membrane (CAM) mesh assay. It counts as in vivo, chicken. The note with it: significant if >25%. Here is the method: Fertilized white leghorn chicken eggs (SPAFAS Inc., Norwich, Conn.) were received at day 0 and incubated for 3 days at 37 C with constant humidity. On day 3, eggs were rinsed with 70% ethanol and opened into 100 mm^2 tissue culture coated Petri dishes under aseptic conditions. The embryos were then returned to a humidified 38 C incubator for 7-9 additional days.
Vitrogen (Collagen Biomaterials, Palo Alto, Calif.) at a final concentration of 0.73 mg/mL and Matrigel (Becton Dickinson, Bedford, Mass.) at a final concentration of 10 mg/mL was directly pipetted onto Nylon meshes with 250 μm^2 openings which were cut into 4 mm×4 mm squares and autoclaved. Polymerization of meshes were under aseptic conditions, on bacteriological Petri dishes. The polymerization conditions for each substrate were identical; after mixing with or without 250 μg of VPF/VEGF165 (Peprotech, Rocky Hill, N.J.) and/or compounds of interest, 40 μL were pipetted onto each mesh in a bacteriological Petri dish. The Petri dish was placed in a humidified 37 C incubator with 5% CO2 for 30 minutes to allow polymerization followed by an incubation at 4° C. for 2 hours.
In a tissue culture enclosure, meshes were placed onto the periphery of the CAM of a day 12-14 embryo, excluding areas containing major vessels. The embryos were then returned to the humidified 38° C. incubator with 3% CO2 for 24 to 48 additional hours.
Embryos were removed from the incubator and meshes were viewed under a dissecting microscope for gross evaluation. Injection of 400 μL FITC dextran, MW 2,000,000 (Sigma, St. Louis, Mo.) through glass microcapillary tubes by infusion into the umbilical vein was performed at a rate of 200 μl per minute. The FITC dextran was allowed to circulate for 5 minutes and 3.7% formaldehyde in PBS was applied directly on each mesh. The embryos were then incubated at 40° C. for 5 minutes and the meshes were dissected off the CAM and fixed in 3.7% formaldehyde for 10 minutes to overnight.
After fixation, meshes were mounted on slides with 90% glycerol in PBS and visualized on an inverted fluorescence microscope. A Nikon Diaphot with a Sony DXC-151A camera attached to the side port was used for capture of images and analysis was with the NIH Image 1.61 software program. For each mesh, 5 random staggered images (approximately 600 μm each) were captured. The areas of high intensity were highlighted and measured. Results are expressed as ability to suppress capillary formation after subtraction from negative control. Values were calculated as a inhibition, considering 100% the capillary density achieved by VPF in the presence of vitrogen alone minus the bakground levels in the absence of VPF. Negative values indicated angiogenic stimulation above the VPF positive control.

T3 sequence (P06756 31-889 limits assumed): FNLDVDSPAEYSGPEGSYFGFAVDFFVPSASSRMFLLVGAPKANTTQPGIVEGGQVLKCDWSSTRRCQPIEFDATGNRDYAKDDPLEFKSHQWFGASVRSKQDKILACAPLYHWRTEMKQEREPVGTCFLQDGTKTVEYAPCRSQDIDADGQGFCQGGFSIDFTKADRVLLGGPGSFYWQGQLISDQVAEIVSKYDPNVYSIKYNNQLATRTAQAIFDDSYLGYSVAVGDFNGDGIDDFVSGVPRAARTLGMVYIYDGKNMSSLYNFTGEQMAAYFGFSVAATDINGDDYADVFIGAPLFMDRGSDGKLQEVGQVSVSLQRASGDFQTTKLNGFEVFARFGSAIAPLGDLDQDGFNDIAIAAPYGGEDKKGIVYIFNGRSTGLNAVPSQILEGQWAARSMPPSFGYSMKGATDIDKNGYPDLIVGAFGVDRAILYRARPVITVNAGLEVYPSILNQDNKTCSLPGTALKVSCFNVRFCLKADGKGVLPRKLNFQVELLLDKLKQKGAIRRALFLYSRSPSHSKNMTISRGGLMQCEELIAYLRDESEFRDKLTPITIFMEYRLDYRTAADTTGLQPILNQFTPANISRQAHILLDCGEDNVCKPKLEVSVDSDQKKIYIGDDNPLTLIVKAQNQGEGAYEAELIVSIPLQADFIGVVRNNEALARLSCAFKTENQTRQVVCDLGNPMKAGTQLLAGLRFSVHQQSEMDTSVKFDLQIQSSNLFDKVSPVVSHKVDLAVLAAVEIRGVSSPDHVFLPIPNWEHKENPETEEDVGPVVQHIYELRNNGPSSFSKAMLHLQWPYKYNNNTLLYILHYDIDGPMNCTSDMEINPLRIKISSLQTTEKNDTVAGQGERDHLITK
T3 sequence (P06756 891-1048 partner limits assumed): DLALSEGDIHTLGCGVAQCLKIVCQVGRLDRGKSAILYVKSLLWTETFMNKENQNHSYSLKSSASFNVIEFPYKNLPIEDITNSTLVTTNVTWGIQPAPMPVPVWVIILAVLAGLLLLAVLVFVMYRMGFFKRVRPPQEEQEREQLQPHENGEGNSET
T3 sequence (P05106 27-788): as the sequence (P05106 27-788) above
T1 sequence (P06756 31-889 limits assumed): as the sequence (P06756 31-889 limits assumed) above
T1 sequence (P06756 891-1048 partner limits assumed): as the sequence (P06756 891-1048 partner limits assumed) above
T1 sequence (P05106 27-788): as the sequence (P05106 27-788) above
T4 sequence (P06756 31-889 limits assumed): as the sequence (P06756 31-889 limits assumed) above
T4 sequence (P06756 891-1048 partner limits assumed): as the sequence (P06756 891-1048 partner limits assumed) above
T4 sequence (P18084 24-799): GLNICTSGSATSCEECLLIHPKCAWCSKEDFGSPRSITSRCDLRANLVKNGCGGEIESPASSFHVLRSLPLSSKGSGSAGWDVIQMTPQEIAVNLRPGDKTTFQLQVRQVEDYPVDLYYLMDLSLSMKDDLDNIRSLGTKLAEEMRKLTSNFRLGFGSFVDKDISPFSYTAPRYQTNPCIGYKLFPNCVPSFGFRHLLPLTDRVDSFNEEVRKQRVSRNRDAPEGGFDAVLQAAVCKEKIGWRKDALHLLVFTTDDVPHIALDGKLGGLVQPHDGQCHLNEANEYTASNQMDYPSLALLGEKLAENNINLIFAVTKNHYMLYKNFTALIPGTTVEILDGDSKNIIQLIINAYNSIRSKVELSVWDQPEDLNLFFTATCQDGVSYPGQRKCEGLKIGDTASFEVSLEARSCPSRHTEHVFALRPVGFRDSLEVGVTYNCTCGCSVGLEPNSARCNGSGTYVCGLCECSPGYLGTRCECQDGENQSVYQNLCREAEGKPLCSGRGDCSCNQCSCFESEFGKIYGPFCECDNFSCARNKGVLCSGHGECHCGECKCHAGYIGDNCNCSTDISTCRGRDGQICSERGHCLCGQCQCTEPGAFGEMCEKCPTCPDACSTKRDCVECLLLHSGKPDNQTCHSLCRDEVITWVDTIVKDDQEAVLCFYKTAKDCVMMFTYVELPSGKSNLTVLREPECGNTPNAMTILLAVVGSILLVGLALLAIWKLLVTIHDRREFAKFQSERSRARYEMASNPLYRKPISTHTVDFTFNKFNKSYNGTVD

On to `NCCCNC(=O)c1ccc(C(=O)NC(CC(=O)O)c2ccccc2)s1.O=C(O)C(F)(F)F` (centres unmarked) [Compound VII, 3-{[5-(3-Amino-propylcarbamoyl)-thiophene-2-carbonyl]-amino}-3-phenyl-propionic acid trifluoroacetic acid salt], for which the IC50 (usually the concentration that inhibits the measured activity by half) on placental αvβ3 was 6.6 µM; at GP IIb-IIIa (αIIbβ3), 13.7 µM; against αvβ3 it was above 10 µM; against αvβ5 it was above 10 µM. The “% of inhibition at 33 μg/mesh in the presence of VEGF” value in experiment [1] is reported as 34%.

(Values after US6960594B2, “Thiophene and furan 2,5-dicarboxamides useful in the treatment of cancer” (Shire BioChem Inc., priority 1998, dated 2005).)
